Experimental data as given in ChEMBL document CHEMBL1201862, “PubChem BioAssay data set” (2004).
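Where inhibition never reached the appropriate level, the endpoint shown equals the highest concentration tested. Otherwise, values were interpolated linearly from a five-concentration, 48-hour dose response in 96-well plates. At the GI50, growth is halved.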 Active and inactive are the calls of the source. No stated cut-off is given here; in the data, active = GI50 up to about 1.1 µM and inactive = higher.

What was measured:
Experiment in all cases: NCI-60 cell line screen, 48 h
SK-MEL-28 = test system: SK-MEL-28
EKVX = test system: EKVX
LOX IMVI = test system: LOX IMVI
UACC-62 = test system: UACC-62
RXF 393 = test system: RXF 393
ACHN = test system: ACHN
MOLT-4 = test system: MOLT-4
HL-60 = test system: HL-60
M19-MEL = test system: M19-MEL
786-0 = test system: 786-0
CAKI-1 = test system: CAKI-1
KM-20L2 = test system: KM-20L2
HT-29 = test system: HT-29
SN12C = test system: SN12C
LXFL 529 = test system: LXFL 529
OVCAR-4 = test system: OVCAR-4
SNB-78 = test system: SNB-78
SK-MEL-5 = test system: SK-MEL-5
SNB-75 = test system: SNB-75
RXF 631 = test system: RXF 631
U-251 = test system: U-251
NCI-H23 = test system: NCI-H23
HCT-116 = test system: HCT-116
RPMI-8226 = test system: RPMI-8226
KM12 = test system: KM12
HCT-15 = test system: HCT-15
HOP-92 = test system: HOP-92
SK-OV-3 = test system: SK-OV-3
DMS-273 = test system: DMS-273
NCI-H226 = test system: NCI-H226
COLO 205 = test system: COLO 205
IGROV-1 = test system: IGROV-1
M14 = test system: M14
UACC-257 = test system: UACC-257
CCRF-CEM = test system: CCRF-CEM
A549 = test system: A549
NCI-H460 = test system: NCI-H460
SW-620 = test system: SW-620
SF-295 = test system: SF-295
SF-539 = test system: SF-539
TK-10 = test system: TK-10
K562 = test system: K562
OVCAR-5 = test system: OVCAR-5
SNB-19 = test system: SNB-19
SF-268 = test system: SF-268
UO-31 = test system: UO-31
HOP-62 = test system: HOP-62
SK-MEL-2 = test system: SK-MEL-2
DLD-1 = test system: DLD-1
A498 = test system: A498
SR = test system: SR
HCC 2998 = test system: HCC 2998
DMS-114 = test system: DMS-114
OVCAR-8 = test system: OVCAR-8
XF498 = test system: XF498
Malme-3M = test system: Malme-3M
OVCAR-3 = test system: OVCAR-3
HOP-18 = test system: HOP-18
NCI-H522 = test system: NCI-H522

`CC(C)=CC(=O)c1c(C(=O)O)nc2ccccc2[n+]1[O-]` was tested, and the GI50 (SK-MEL-28) was > 100 µM (inactive), the GI50 (EKVX) was > 100 µM (inactive) and the GI50 (LOX IMVI) was > 100 µM (inactive). The GI50 (UACC-62) was > 100 µM (inactive), the GI50 (RXF 393) was > 100 µM (inactive) and the GI50 (ACHN) was > 100 µM (inactive). For the same compound, the GI50 (MOLT-4) was > 100 µM (inactive), the GI50 (HL-60) was > 100 µM (inactive) and the GI50 (M19-MEL) was > 100 µM (inactive). For the same compound, the GI50 (786-0) was > 100 µM (inactive), the GI50 (CAKI-1) was > 100 µM (inactive) and the GI50 (KM-20L2) was > 100 µM (inactive). The GI50 (HT-29) was > 100 µM (inactive), the GI50 (SN12C) was > 100 µM (inactive) and the GI50 (LXFL 529) was > 100 µM (inactive). For the same compound, the GI50 (OVCAR-4) was > 100 µM (inactive), the GI50 (SNB-78) was > 100 µM (inactive) and the GI50 (SK-MEL-5) was > 100 µM (inactive). The GI50 (SNB-75) was > 100 µM (inactive), the GI50 (RXF 631) was > 100 µM (inactive) and the GI50 (U-251) was > 100 µM (inactive). For the same compound, the GI50 (NCI-H23) was > 100 µM (inactive), the GI50 (HCT-116) was > 100 µM (inactive) and the GI50 (RPMI-8226) was > 100 µM (inactive). For the same compound, the GI50 (KM12) was > 100 µM (inactive), the GI50 (HCT-15) was > 100 µM and the GI50 (HOP-92) was > 100 µM (inactive). The GI50 (SK-OV-3) was > 100 µM (inactive), the GI50 (DMS-273) was > 100 µM (inactive) and the GI50 (NCI-H226) was > 100 µM (inactive). The GI50 (COLO 205) was > 100 µM (inactive), the GI50 (IGROV-1) was > 100 µM (inactive) and the GI50 (M14) was > 100 µM (inactive). For the same compound, the GI50 (UACC-257) was > 100 µM (inactive), the GI50 (CCRF-CEM) was > 100 µM (inactive) and the GI50 (A549) was > 100 µM (inactive). The GI50 (NCI-H460) was > 100 µM (inactive), the GI50 (SW-620) was > 100 µM (inactive) and the GI50 (SF-295) was > 100 µM (inactive). For the same compound, the GI50 (SF-539) was > 100 µM (inactive), the GI50 (TK-10) was > 100 µM (inactive) and the GI50 (K562) was > 100 µM (inactive). The GI50 (OVCAR-5) was > 100 µM (inactive), the GI50 (SNB-19) was > 100 µM (inactive) and the GI50 (SF-268) was > 100 µM (inactive). For the same compound, the GI50 (UO-31) was > 100 µM (inactive), the GI50 (HOP-62) was > 100 µM (inactive) and the GI50 (SK-MEL-2) was > 100 µM (inactive). For the same compound, the GI50 (DLD-1) was > 100 µM (inactive), the GI50 (A498) was > 100 µM (inactive) and the GI50 (SR) was > 100 µM (inactive). The GI50 (HCC 2998) was > 100 µM (inactive) and the GI50 (DMS-114) was > 100 µM (inactive).

For `CN(C)c1ccc(/C=c2\sc3nnc(-c4cccnc4)n3c2=O)cc1`, the GI50 (SK-MEL-28) was > 100 µM (inactive), the GI50 (EKVX) was > 100 µM (inactive) and the GI50 (LOX IMVI) was > 100 µM (inactive). For the same compound, the GI50 (UACC-62) was > 100 µM (inactive), the GI50 (OVCAR-8) was > 100 µM (inactive) and the GI50 (RXF 393) was > 100 µM (inactive). The GI50 (ACHN) was > 100 µM (inactive), the GI50 (MOLT-4) was > 100 µM (inactive) and the GI50 (HL-60) was > 100 µM (inactive). For the same compound, the GI50 (M19-MEL) was > 100 µM (inactive), the GI50 (786-0) was > 100 µM (inactive) and the GI50 (CAKI-1) was > 100 µM (inactive). For the same compound, the GI50 (KM-20L2) was > 100 µM (inactive), the GI50 (SN12C) was > 100 µM (inactive) and the GI50 (LXFL 529) was > 100 µM (inactive). For the same compound, the GI50 (OVCAR-4) was > 100 µM (inactive), the GI50 (SNB-78) was > 100 µM (inactive) and the GI50 (SK-MEL-5) was > 100 µM (inactive). The GI50 (XF498) was > 100 µM (inactive), the GI50 (SNB-75) was > 100 µM (inactive) and the GI50 (U-251) was > 100 µM (inactive). The GI50 (NCI-H23) was > 100 µM (inactive), the GI50 (HCT-116) was > 100 µM (inactive) and the GI50 (RPMI-8226) was > 100 µM (inactive). The GI50 (KM12) was > 100 µM (inactive), the GI50 (HCT-15) was > 100 µM and the GI50 (HOP-92) was > 100 µM (inactive). The GI50 (SK-OV-3) was > 100 µM (inactive), the GI50 (DMS-273) was > 100 µM (inactive) and the GI50 (NCI-H226) was > 100 µM (inactive). For the same compound, the GI50 (Malme-3M) was > 100 µM (inactive), the GI50 (COLO 205) was > 100 µM (inactive) and the GI50 (IGROV-1) was > 100 µM (inactive). For the same compound, the GI50 (M14) was > 100 µM (inactive), the GI50 (UACC-257) was > 100 µM (inactive) and the GI50 (CCRF-CEM) was > 100 µM (inactive). The GI50 (A549) was > 100 µM (inactive), the GI50 (NCI-H460) was > 100 µM (inactive) and the GI50 (SW-620) was > 100 µM (inactive). The GI50 (SF-295) was > 100 µM (inactive), the GI50 (SF-539) was > 100 µM (inactive) and the GI50 (TK-10) was > 100 µM (inactive). For the same compound, the GI50 (K562) was > 100 µM (inactive), the GI50 (OVCAR-5) was > 100 µM (inactive) and the GI50 (OVCAR-3) was > 100 µM (inactive). The GI50 (SNB-19) was > 100 µM (inactive), the GI50 (SF-268) was > 100 µM (inactive) and the GI50 (HOP-18) was > 100 µM (inactive). The GI50 (UO-31) was > 100 µM (inactive), the GI50 (HOP-62) was > 100 µM (inactive) and the GI50 (SK-MEL-2) was > 100 µM (inactive). For the same compound, the GI50 (DLD-1) was > 100 µM (inactive), the GI50 (A498) was > 100 µM (inactive) and the GI50 (HCC 2998) was > 100 µM (inactive). The GI50 (NCI-H522) was > 100 µM (inactive) and the GI50 (DMS-114) was > 100 µM (inactive).
